Reference: ChEMBL document CHEMBL5393446, “3-(1-oxo-5-(piperidin-4-yl)isoindolin-2-yl)piperidine-2,6-dione derivatives and uses thereof” (2022)

Biological target: Zinc finger protein Helios (Homo sapiens) (UniProt Q9UKS7)
Test: Induction of IKZF2 degradation in human GripTite 293 MSR cells at 30 uM incubated for 24 hrs by PathHunter assay relative to control
Format: cell-based

Chain of Zinc finger protein Helios (Homo sapiens) (Q9UKS7 whole entry): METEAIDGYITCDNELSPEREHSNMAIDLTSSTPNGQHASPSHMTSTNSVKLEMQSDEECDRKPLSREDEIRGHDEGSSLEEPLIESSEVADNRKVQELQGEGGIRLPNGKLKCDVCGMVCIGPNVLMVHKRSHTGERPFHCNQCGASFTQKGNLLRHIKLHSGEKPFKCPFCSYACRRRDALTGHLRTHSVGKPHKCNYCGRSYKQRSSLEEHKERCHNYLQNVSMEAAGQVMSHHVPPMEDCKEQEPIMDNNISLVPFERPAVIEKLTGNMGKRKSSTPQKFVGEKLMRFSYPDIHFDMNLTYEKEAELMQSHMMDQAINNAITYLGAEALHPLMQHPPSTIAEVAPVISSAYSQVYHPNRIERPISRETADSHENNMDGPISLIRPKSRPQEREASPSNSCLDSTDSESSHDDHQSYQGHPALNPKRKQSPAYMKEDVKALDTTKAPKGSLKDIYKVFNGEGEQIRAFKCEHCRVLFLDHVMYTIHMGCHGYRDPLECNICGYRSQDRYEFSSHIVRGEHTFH

| Activity [%] | Compound |
| --- | --- |
| 35 | CC1CC(c2ccc3c(c2)CN(C2CCC(=O)NC2=O)C3=O)CC(C)N1Cc1ccccc1 (configuration not stated) |
| 30 | CC1CC(c2ccc3c(c2)CN(C2CCC(=O)NC2=O)C3=O)CC(C)N1 (configuration not stated) |
